Source: patent US20230233569A1 (Revolution Medicines, Inc., priority 2020, published 2023)
“And” between values parts separate entries of the source, which are not always exact repeats. Identical values can stand only once. Like-named read-outs stand apart in the source and are kept apart here.

Tests used:
NRAS WT = NRAS WT (Homo sapiens, UniProt P01111+P62937); test: Disruption of BRAF RBD interaction with Ras (FRET / MOA assay, with Cyclophilin A); format: biochemical; settings: NRAS WT; read-out: NRAS WT FRET data IC50
Sequence of NRAS WT (P01111 whole entry): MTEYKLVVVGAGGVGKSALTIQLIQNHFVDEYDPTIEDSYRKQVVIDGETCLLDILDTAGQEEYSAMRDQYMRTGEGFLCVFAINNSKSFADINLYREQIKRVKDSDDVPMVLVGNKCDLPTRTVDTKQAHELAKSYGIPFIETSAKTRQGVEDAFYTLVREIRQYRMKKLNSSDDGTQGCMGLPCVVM
Sequence of NRAS WT (P62937 whole entry): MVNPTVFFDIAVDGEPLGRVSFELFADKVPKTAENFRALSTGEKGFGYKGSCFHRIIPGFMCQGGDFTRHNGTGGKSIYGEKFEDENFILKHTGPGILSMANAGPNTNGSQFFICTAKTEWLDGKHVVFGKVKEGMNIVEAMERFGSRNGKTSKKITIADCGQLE
Outline: (§1)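 TR-FRET in 25 mM HEPES pH 7.3, 100 mM NaCl, 5 mM MgCl2, 0.1% BSA: 25 μM Cyclophilin A, 12.5 nM His6-Ras-GMPPNP, 50 nM GST-BRAF RBD with compound (10-point 3-fold series from 30 μM), 3 h at 25° C. Anti-His Eu/anti-GST APC added, 1.5 h more; IC50 from decreased FRET ratio versus DMSO.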

NRAS Q61K = NRAS Q61K (Homo sapiens, UniProt P01111+P62937, Q61K); test: as above; format: biochemical; settings: NRAS Q61K; read-out: NRAS Q61K FRET data IC50
Sequence of NRAS Q61K (P01111 whole entry Q61K): as the sequence (P01111 whole entry) above, with Q61K counted along it
Sequence of NRAS Q61K (P62937 whole entry): as the sequence (P62937 whole entry) above
Outline: as §1

NRAS Q61R = NRAS Q61R (Homo sapiens, UniProt P01111+P62937, Q61R); test: as above; format: biochemical; settings: NRAS Q61R; read-out: NRAS Q61R FRET data IC50
Sequence of NRAS Q61R (P01111 whole entry Q61R): as the sequence (P01111 whole entry) above, with Q61R counted along it
Sequence of NRAS Q61R (P62937 whole entry): as the sequence (P62937 whole entry) above
Outline: as §1

NCI-H358 (K-Ras G12C) = test: CellTiter-Glo cell viability assay, 5-day treatment; format: cell-based; settings: Homo sapiens
Outline: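 Compounds were dispensed directly onto seeded cells and incubated for 5 days, then plates were equilibrated to room temperature for about 30 minutes before luminescence reading. Signals were expressed as percent of the mean DMSO control and fitted with a four-parameter logistic curve.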

KRAS Q61H = KRAS Q61H (Homo sapiens, UniProt P01116+P62937, Q61H); test: Disruption of BRAF RBD interaction with Ras (FRET / MOA assay, with Cyclophilin A); format: biochemical; settings: KRAS Q61H; read-out: KRAS Q61H FRET data IC50
Sequence of KRAS Q61H (P01116 1-169 isoform P01116-2 Q61H limits assumed): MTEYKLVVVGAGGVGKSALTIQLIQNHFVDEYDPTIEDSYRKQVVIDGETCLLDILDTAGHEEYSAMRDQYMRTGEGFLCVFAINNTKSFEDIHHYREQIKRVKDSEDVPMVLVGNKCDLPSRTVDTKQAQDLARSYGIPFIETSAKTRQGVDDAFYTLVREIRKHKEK
Sequence of KRAS Q61H (P62937 whole entry): as the sequence (P62937 whole entry) above
Outline: as §1

KRAS G13D = KRAS G13D (Homo sapiens, UniProt P01116+P62937, G13D); test: as above; format: biochemical
Sequence of KRAS G13D (P01116 1-169 isoform P01116-2 G13D limits assumed): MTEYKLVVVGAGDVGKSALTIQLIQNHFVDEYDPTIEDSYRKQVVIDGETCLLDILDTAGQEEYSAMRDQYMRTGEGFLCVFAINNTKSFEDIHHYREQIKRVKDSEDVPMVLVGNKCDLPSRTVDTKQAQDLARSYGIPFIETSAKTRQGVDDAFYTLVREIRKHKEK
Sequence of KRAS G13D (P62937 whole entry): as the sequence (P62937 whole entry) above
Outline: (§2)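 Biochemical TR-FRET disruption assay: nucleotide-loaded K-Ras with Cyclophilin A and a BRAF RBD construct, compound titrated over 10 points from 30 μM (final).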

KRAS WT = KRAS WT (Homo sapiens, UniProt P01116+P62937); test: as above; format: biochemical; settings: KRAS WT; read-out: KRAS WT FRET data IC50
Sequence of KRAS WT (P01116 1-169 isoform P01116-2 limits assumed): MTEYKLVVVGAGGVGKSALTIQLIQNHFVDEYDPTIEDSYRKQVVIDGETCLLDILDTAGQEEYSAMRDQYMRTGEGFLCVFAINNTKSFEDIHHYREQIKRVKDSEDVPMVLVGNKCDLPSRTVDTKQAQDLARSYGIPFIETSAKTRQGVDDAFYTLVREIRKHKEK
Sequence of KRAS WT (P62937 whole entry): as the sequence (P62937 whole entry) above
Outline: as §2

KRAS G12S = KRAS G12S (Homo sapiens, UniProt P01116+P62937, G12S); test: as above; format: biochemical
Sequence of KRAS G12S (P01116 1-169 isoform P01116-2 G12S limits assumed): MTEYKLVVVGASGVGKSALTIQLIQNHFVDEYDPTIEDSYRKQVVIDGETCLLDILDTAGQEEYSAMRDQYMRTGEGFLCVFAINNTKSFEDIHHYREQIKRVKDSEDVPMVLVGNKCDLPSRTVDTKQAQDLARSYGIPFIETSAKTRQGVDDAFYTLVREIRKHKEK
Sequence of KRAS G12S (P62937 whole entry): as the sequence (P62937 whole entry) above
Outline: as §2

KRAS G12C = KRAS G12C (Homo sapiens, UniProt P01116+P62937, G12C); test: as above; format: biochemical
Sequence of KRAS G12C (P01116 1-169 isoform P01116-2 G12C): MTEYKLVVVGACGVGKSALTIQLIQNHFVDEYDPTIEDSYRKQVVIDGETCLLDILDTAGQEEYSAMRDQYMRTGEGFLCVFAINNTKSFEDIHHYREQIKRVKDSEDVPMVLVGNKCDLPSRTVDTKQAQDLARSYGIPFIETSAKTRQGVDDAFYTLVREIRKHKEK
Sequence of KRAS G12C (P62937 whole entry): as the sequence (P62937 whole entry) above
Outline: as §2

KRAS G12D = KRAS G12D (Homo sapiens, UniProt P01116+P62937, G12D); test: as above; format: biochemical
Sequence of KRAS G12D (P01116 1-169 isoform P01116-2 G12D limits assumed): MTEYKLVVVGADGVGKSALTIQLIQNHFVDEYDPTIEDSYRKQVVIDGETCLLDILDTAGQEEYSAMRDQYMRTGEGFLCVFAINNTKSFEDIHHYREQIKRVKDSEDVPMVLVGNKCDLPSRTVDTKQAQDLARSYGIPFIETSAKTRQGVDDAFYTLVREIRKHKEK
Sequence of KRAS G12D (P62937 whole entry): as the sequence (P62937 whole entry) above
Outline: as §2

NRAS G12C = NRAS G12C (Homo sapiens, UniProt P01111+P62937, G12C); test: as above; format: biochemical
Sequence of NRAS G12C (P01111 whole entry G12C): as the sequence (P01111 whole entry) above, with G12C counted along it
Sequence of NRAS G12C (P62937 whole entry): as the sequence (P62937 whole entry) above

KRAS G12V = KRAS G12V (Homo sapiens, UniProt P01116+P62937, G12V); test: as above; format: biochemical
Sequence of KRAS G12V (P01116 1-169 isoform P01116-2 G12V limits assumed): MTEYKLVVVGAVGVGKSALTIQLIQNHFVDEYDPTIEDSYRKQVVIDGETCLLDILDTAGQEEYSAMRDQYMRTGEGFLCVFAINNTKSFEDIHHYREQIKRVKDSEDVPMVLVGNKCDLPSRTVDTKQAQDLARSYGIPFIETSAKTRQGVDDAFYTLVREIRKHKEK
Sequence of KRAS G12V (P62937 whole entry): as the sequence (P62937 whole entry) above
Outline: as §2

KRAS G13C = KRAS G13C (Homo sapiens, UniProt P01116+P62937, G13C); test: as above; format: biochemical
Sequence of KRAS G13C (P01116 1-169 isoform P01116-2 G13C): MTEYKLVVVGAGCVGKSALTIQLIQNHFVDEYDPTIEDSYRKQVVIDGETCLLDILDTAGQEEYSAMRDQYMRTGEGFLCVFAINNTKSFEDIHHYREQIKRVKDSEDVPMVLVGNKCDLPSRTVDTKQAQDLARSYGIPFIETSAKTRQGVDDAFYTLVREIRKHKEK
Sequence of KRAS G13C (P62937 whole entry): as the sequence (P62937 whole entry) above
Outline: as §2

[1] = NCI-H358, 120 h, 5-day treatment, read-out: H358 Cell Viability assay data (K-Ras G12C, IC50)
[2] = KRAS G13D, read-out: KRAS G13D FRET data IC50
[3] = read-out: KRAS G12S FRET data, IC50
[4] = read-out: KRAS G12C FRET data, IC50
[5] = read-out: KRAS G12D FRET data, IC50
[6] = NRAS G12C, read-out: NRAS G12C FRET data IC50
[7] = KRAS G12V, read-out: KRAS G12V FRET data IC50
[8] = read-out: KRAS G13C FRET data, IC50
[9] = NCI-H358, H358, K-Ras G12C, read-out: Additional H358 Cell Viability assay data (K-Ras G12C, IC50)

IC50 (NRAS WT) | IC50 (NRAS Q61K) | IC50 (NRAS Q61R) | IC50 (KRAS Q61H) | IC50 (KRAS G13D; [2]) | IC50 (KRAS WT) | IC50 (KRAS G12S; [3]) | IC50 (KRAS G12D; [5]) | IC50 (NRAS G12C; [6]) | IC50 (KRAS G12V; [7]) | SMILES | further results
0.01 to 0.1 µM | 0.01 to 0.1 µM | 0.01 to 0.1 µM |  |  |  |  |  |  |  | CCn1c(-c2cccnc2[C@H](C)OC)c2c3cc(ccc31)-c1csc(n1)C[C@H](NC(=O)[C@H](C(C)C)N(C)C(=O)N1CC([C@@H](C)OC)C1)C(=O)N1CCC[C@H](N1)C(=O)OCC(C)(C)C2 (atropisomer, axis not shown) [Example A278] | IC50 (NCI-H358 (K-Ras G12C); [1]): < 0.01 µM
1 to 10 µM | 1 to 10 µM | 1 to 10 µM | 0.1 to 1 µM |  |  |  |  |  |  | CCn1c(-c2cccnc2[C@H](C)OC)c2c3cc(ccc31)-c1cc(O)cc(c1)C[C@H](NC(=O)C13CCCC1C3(F)F)C(=O)N1CCC[C@H](N1)C(=O)OCC(C)(C)C2 (stereo partly drawn) [Example A180] | 
0.01 to 0.1 µM | 0.1 to 1 µM | 0.1 to 1 µM | 0.01 to 0.1 µM | 0.01 to 0.1 µM | 0.01 to 0.1 µM | 0.1 to 1 µM | 0.1 to 1 µM | 0.01 to 0.1 µM | 0.1 to 1 µM | CCn1c(-c2cccnc2[C@H](C)OC)c2c3cc(ccc31)-c1cc(O)cc(c1)C[C@H](NC(=O)[C@H](C1CCCC1)N(C)C(=O)N1CCS(=O)(=NC)CC1)C(=O)N1CCC[C@H](N1)C(=O)OCC(C)(C)C2 [Example A426] | IC50 (KRAS G12C; [4]): 0.01 to 0.1 µM; IC50 (KRAS G13C; [8]): 0.01 to 0.1 µM
0.1 to 1 µM | 0.01 to 0.1 µM | 0.1 to 1 µM | 0.01 to 0.1 µM |  |  |  |  |  |  | CCn1c(-c2cccnc2[C@H](C)OC)c2c3cc(ccc31)-c1csc(n1)C[C@H](NC(=O)[C@H](C(C)C)N(C)C(=O)N1CC(OC)C1)C(=O)N1CCC[C@H](N1)C(=O)OCC(C)(C)C2 (racemic) [Example A205] | IC50 (NCI-H358 (K-Ras G12C); [1]): < 0.01 µM
 | > 10 µM | > 10 µM | > 10 µM |  |  |  |  |  |  | C=CC(=O)N1CC[C@H](C(=O)N(C)[C@H](C(=O)N[C@H]2C[C@H]3CN(CCO3)c3ccc4c(c3)c(c(-c3cccnc3[C@H](C)OC)n4CC)CC(C)(C)COC(=O)[C@@H]3CCCN(N3)C2=O)C(C)C)C1 (racemic) [Example A507] | IC50 (NCI-H358 (K-Ras G12C); [9]): 0.1 to 1 µM; IC50 (KRAS G13D; KRAS G13D FRET data IC50, KRAS G13D): > 10 µM; IC50 (KRAS G12S; KRAS G12S FRET data, IC50): 1 to 10 µM; IC50 (KRAS G12C; KRAS G12C FRET data IC50, KRAS G12C): 0.1 to 1 µM; IC50 (KRAS G12D; KRAS G12D FRET data, IC50): > 10 µM; IC50 (NRAS G12C; NRAS G12C FRET data IC50, NRAS G12C): 0.1 to 1 µM; IC50 (KRAS G12V; KRAS G12V FRET data IC50, KRAS G12V): 1 to 10 µM; IC50 (KRAS G13C; KRAS G13C FRET data IC50, KRAS G13C): 1 to 10 µM
0.1 to 1 µM | 1 to 10 µM | 1 to 10 µM | 0.1 to 1 µM | 1 to 10 µM and > 10 µM | 1 to 10 µM | 1 to 10 µM and > 10 µM | 1 to 10 µM and > 10 µM | 1 to 10 µM | 1 to 10 µM | CCn1c(-c2cccnc2[C@H](C)OC)c2c3cc(ccc31)-c1cc(O)cc(c1)C[C@H](NC(=O)C1[C@H]3COC[C@@H]13)C(=O)N1CCC[C@H](N1)C(=O)OCC(C)(C)C2 (stereo partly drawn) [Example A253] | IC50 (KRAS G12C; [4]): 0.1 to 1 µM and 1 to 10 µM; IC50 (KRAS G13C; [8]): 0.1 to 1 µM and 1 to 10 µM
 | > 10 µM | > 10 µM | > 10 µM | > 10 µM | > 10 µM | > 10 µM | > 10 µM | 1 to 10 µM | > 10 µM | C=CS(=O)(=O)N1CC[C@H](C(=O)N(C)[C@H](C(=O)N[C@H]2Cc3cccc(c3)-c3ccc4c(c3)c(c(-c3cncnc3)n4CC)CC(C)(C)COC(=O)[C@@H]3CCCN(N3)C2=O)C(C)C)C1 [Example A171] | IC50 (NCI-H358 (K-Ras G12C); [9]): 0.1 to 1 µM; IC50 (KRAS G12C; KRAS G12C, read-out: KRAS G12C FRET data IC50): 1 to 10 µM; IC50 (KRAS G13C; KRAS G13C, read-out: KRAS G13C FRET data IC50): 1 to 10 µM
